Tested on: 293T cells
Experiment: cells
Type: cell-based
Conditions: Homo sapiens, HEK-293T

SMILES	IC50 (Table 2-2, 48 hours, CCK8)	IC50 (Table 4-3, CCK8)
CCCCCCCCC(CCCCCC)C(=O)OCCCCCCN(CCCCO)CCCCCCOC(=O)C(CCCCCC)CCCCCCCC (stereo not shown) [ALC0315]	145 µM	145 µM
CCCCCCCC/C=C\CCCCCCCC(=O)OC[C@H](C[N+](C)(C)C)OC(=O)CCCCCCC/C=C\CCCCCCCC [DOTAP, N-(2,3-dioleoyloxy)propyl)-N,N,N-trimethylammonium chloride]	40.7 µM	40.7 µM

Reference: patent EP4570271A1, “METAL-PHOSPHOLIPID COMPLEX, METAL-PHOSPHOLIPID COMPLEX PARTICLE, DRUG-LIPID PARTICLE, METHOD FOR PREPARING SAME, AND USE THEREOF” (priority 2022, dated 2024)
